# Test results: patent US20190352341A1, “MODIFIED PEPTIDES AND THEIR USE FOR TREATING SYSTEMIC LUPUS ERYTHEMATOSUS” (IMMUPHARMA FRANCE SA, priority 2018, published 2019)
# “And” between values parts separate entries of the source, which are not always exact repeats. Identical values can stand only once. Numbered stars: 1 amine (or outer) side, 2 acyl side, 3 side chain; on linkers, the order of the positions; unused ones are H or OH. Square brackets hold non-standard residues; d marks the D form. Peptide text beside a SMILES is read from it. ξ: configuration not given here. X1 = CSCC[C@H](NC(=N)[C@H](Cc1c[nH]cn1)N[*:1])C(=O)[*:2]; pS = N[C@@H](COP(=O)(O)O)C(=O)O; Ile(3ξ) = CCC(C)[C@H](N)C(=O)O
# Columns and labels:
# C57BL/6 mice = assay: K/B×N serum transfer mouse model of rheumatoid arthritis; assay type: in vivo
# Protocol: The TCR transgenic mice expressing the KRN and the MHC class II A^g7 molecule (K/B×N mice) have developed a severe inflammatory arthritis. The administration of serum of these mice to healthy recipient mice causes inflammatory arthritis over a period of about 15 days with a peak ignition around day 7 post-injection.
# Two mouse serum administrations from K/B×N were performed (day 0 and day 2). The injection of serum (100 μl/mouse) is performed by intra-peritoneal (ip) injection in mice C57BL/6 (or B6) for 8 weeks (n=10); untreated mouse (n=10).
# The P140 peptide (100 μg/100 μl; iv retro-orbital) was administered as follows:
# Curative treatment: Injection at day 1 and day 4, to guide the peak of inflammatory disease. Preventive treatment: Injection at day −7 and day −2. Bleeding S0 (at day 0) is followed by bloodletting conducted every six days to dispose of serum. The study ends when inflammation has returned to its basal level, to around day 20 (see FIG. 21).
# During the peak of inflammation, every day the animals are evaluated, and swelling score of articulation is established. It is ranged from 0 to 4 and based on a joint observation of the animal. In practice, this score is given for each leg (4 values) and these values are added together to get a general score that ranges from 0 to 16 (FIG. 22).
# SLE patients = assay: Clinical trial in SLE patients (SRI-4 response); assay type: in vivo, human
# Protocol: Human patients with SLE were administered the “standard of care” for SLE+placebo or SEQ ID NO.:1 (serine 10 phosphorylated) (“P140”). The P140 peptide was administered in a solution with mannitol; the placebo was a mannitol solution only. Patients were treated for 52 weeks.
# Based on the protocol and the commonly accepted study design, there were two groups of patients: (1) patients receiving P140 plus “Standard of Care” and (2) patients receiving placebo plus “Standard of Care”. “Standard of Care” includes treatment with other drugs such as steroids, anti-malarials, methotrexate etc. No patients were treated just with placebo, but all were receiving other drug treatments. The definition of a “responder” is based on the SLE Responder Index (SRI-4) score, which requires a reduction of at least four points in this score. Therefore, patients who improve by less than four points are counted as non-responders, but also no distinction is made between patients who improve by more than 4 points, all being equal “responders”.
# The SRI-4 score comprises criteria from three different internationally validated indices, SELENA-SLE Disease Activity Index (SELENA-SLEDAI), Physician Global Assessment (PGA) and the British Isles Lupus Assessment Group (BILAG) 2004. See Luijten, K. M. et al., Autoimmun Rev. 2012 March; 11(5):326-9.
# Balb/c mice = assay: 31-day HDM-induced asthma model, BAL cells; assay type: in vivo, mouse; conditions: for B cells / DCs / Eosinophils / Macrophages / Neutrophils / T cells / Total cells: BAL, HDM-sensitized, P140 i.v. 4 mg/kg day 25, individual mice
# Protocol: The aim of this study was to evaluate the effect of the P140 phosphopeptide administered systemically (intravenously) in a 31-day model of HDM-induced asthma in mice. The P140 phosphopeptide was solubilized in sterile water (Braun) and 10× concentrate sterile saline was added to adjust osmolarity to 300 mosm. Osmolarity was controlled with a micro osmometer (Löser, type 15) and validated (303 mosm). The P140 phosphopeptide was used in vivo at the dose of 4 mg/kg by intravenous (i.v.) routes. Control animals received equivalent volumes (2 ml/kg) of saline (Table 8).
# Nine-week-old male Balb/c mice were sensitized by intranasal (i.n.) administration of HDM extract (Stallergenes): 1 μg in 25 μl saline on days 0, 1, 2, 3, 4, and 10 μg on days 14 and 21. Mice were challenged by i.n. administration of HDM (1 μg) and/or saline on days 28, 29 and 30. Mice were treated by i.v. injection (2 ml/kg) of P140 or solvent on day 25 (see FIG. 14).
# BAL was performed after airway responsiveness measurement twenty-four hours after HDM challenge as described (Daubeuf et al. 2012). Mice were anaesthetized IP (Ketamine 150 mg/kg—Xylasine 10 mg/kg). Blood was collected from the heart, centrifuged at 10,000 g for 2 min and serum stored at −20° C.
# After semi-excision of the trachea, a plastic cannula was inserted, and airspace washed with 0.5 ml of 0.9% NaCl injected with a 1 ml syringe. This procedure was performed 10 times. The initial concentrated supernatant of the 2 first lavages (volume=2×0.5 ml administered, approximately 0.5 ml recovered) was collected for cytokine measurements. The remaining BAL fluid was centrifuged (300 g for 5 min, 4° C.), and cell pellets pooled. The cell pellet was suspended in 500 μl of 0.9% NaCl and used for total cell counts evaluated on a Muse® Cell Analyser (Millipore). Differential cell counts were assessed by flow cytometry (LSRII® cytometer, BD Bioscience). BAL cells were added with FCblock (0.5 μl, 553142, BD Bioscience) in a black microplate, incubated for 20 min at room temperature. Then, marker antibodies were added: CD11c-FITC (557400, BD bioscience), Gr-1-PeeFluor610 (61-5931-82, eBioscience), F4/80-PE (12-4801-82, eBioscience), CD11b-APC-Cy7 (557657, BD bioscience), CD45-AlexaFluor700 (103128, BioLegend), CD3-BV605 (564009, BD bioscience), CD19-PE-Cy7 (552854, BD bioscience). Antibodies were incubated with BAL cells for 30 min at room temperature before DAPI (5 μl, BD bioscience) addition, and flow cytometry was performed immediately.
# All mice were sensitized to HDM on days 0, 1, 2, 3, 4, 14, 21, and challenged either with saline ([…]) or HDM (challenge with allergen). Results are presented as means±SEM. Differences between groups were tested for statistical significance using Student's t test for inflammatory cells and a two-way ANOVA followed by Bonferroni post-test for airway responses.
# [1] = saline-challenged (chronic asthma)
# [2] = chronic asthma (saline-challenged), P140 4 mg/kg i.v. day 25
# [3] = chronic asthma (saline-challenged), P140 4 mg/kg i.v. day 25, non-significant
smiles,measurement,setting,value
CCC(C)[C@H](NC(=O)[C@H](Cc1ccccc1)NC(=O)[C@H](C)NC(=O)[C@H](Cc1ccc(O)cc1)NC(=O)CNC(=O)[C@H](CCCNC(=N)N)NC(=O)[C@@H]1CCCN1C(=O)[C@H](CCCCN)NC(=O)CNC(=O)[C@H](COP(=O)(O)O)NC(=O)[C@H](CCCNC(=N)N)NC(=O)[C@H](CCCCN)NC(=O)[C@H](CO)NC(=O)[C@H](Cc1ccc(O)cc1)NC(=O)[C@@H](NC(=O)[C@H](CCSC)NC(=N)[C@H](Cc1c[nH]cn1)NC(=O)[C@@H](NC(=O)[C@@H](N)CCCNC(=N)N)C(C)CC)C(C)C)C(=O)N[C@@H](CCC(=O)O)C(=O)N[C@@H](Cc1ccc(O)cc1)C(=O)O (some centres unmarked) [Compound P140] (H-R[Ile(3ξ)][X1]VYSKR[pS]GKPRGYAF[Ile(3ξ)]EY-OH),Weight loss,"C57BL/6 mice; curative protocol (P140 day 1 and day 4), from day 2",15%
same,Weight gain,"C57BL/6 mice; curative protocol, between day 5 and the end of the study, controls 5%",20%
same,"Inflammation score per leg, maximum","C57BL/6 mice; curative protocol, rear legs",~1.5
same,Weight loss,"C57BL/6 mice; preventive protocol (P140 day −7 and day −2), day 1 to day 7, controls 10%",5%
same,"Increase in size of joints, right back legs","C57BL/6 mice; preventive protocol, day 0 to day 7, controls about 22%",around 12%
same,"Increase in size of the joint, left hind paws","C57BL/6 mice; preventive protocol, day 0 to day 7, controls about 30%",about 15%
same,"Increase in size of articulation, left front leg","C57BL/6 mice; preventive protocol, controls 45%",20%
same,Swelling in the joints of right front leg,"C57BL/6 mice; preventive protocol, controls nearly 45%",+20%
same,"General inflammation score, maximum","C57BL/6 mice; preventive protocol, sum of four legs, controls around 7 (printed day 7)",≤ 5
same,Response rate (SRI-4),"SLE patients; Anti dsDNA+ European study population, placebo 48.8%",71.1%
same,Response rate (SRI-4),"SLE patients; Anti dsDNA+ patients, full study population, 52 weeks, plus standard of care, placebo 47.3%",61.5%
same,Patients in full remission,"SLE patients; Anti dsDNA+ patients, none in the placebo group",7.6%
same,Tolerability,"SLE patients; SLE patients, 52 weeks",well tolerated
same,B cells,Balb/c mice; HDM-challenged (HDM + P140),59 092 and 102 246 and 42 085 and 25 443 and 116 814 and 115 000 and 53 947 and 170 980
same,DCs,Balb/c mice; HDM-challenged (HDM + P140),1 034 and 2 238 and 1 793 and 242 and 586 and 1 350 and 733 and 1 928
same,Eosinophils,Balb/c mice; HDM-challenged (HDM + P140),955 824 and 1 404 942 and 636 065 and 342 046 and 1 283 190 and 1 036 803 and 538 210 and 1 010 666
same,Macrophages,Balb/c mice; HDM-challenged (HDM + P140),58 705 and 118 771 and 314 326 and 125 002 and 34 364 and 38 709 and 29 121 and 73 491
same,Neutrophils,Balb/c mice; HDM-challenged (HDM + P140),606 700 and 510 027 and 500 004 and 147 616 and 371 317 and 487 119 and 284 503 and 24 426
same,T cells,Balb/c mice; HDM-challenged (HDM + P140),400 329 and 735 865 and 383 074 and 243 813 and 469 834 and 502 985 and 334 784 and 1 056 303
same,Total cells,Balb/c mice; HDM-challenged (HDM + P140),2140000 and 2992000 and 2190000 and 1010000 and 2310000 and 2220000 and 1270000 and 2410000
same,B cells,Balb/c mice; [1],2 297 and 44 668 and 22 879 and 11 101 and 7 660
same,DCs,Balb/c mice; [1],0 and 484 and 461 and 319 and 160
same,Eosinophils,Balb/c mice; [1],124 514 and 450 346 and 448 074 and 205 568 and 239 527
same,Macrophages,Balb/c mice; [1],130 734 and 267 885 and 360 987 and 177 815 and 73 725
same,Neutrophils,Balb/c mice; [1],2 584 and 35 734 and 23 986 and 34 836 and 2 394
same,T cells,Balb/c mice; [1],57 711 and 323 623 and 294 011 and 208 439 and 86 810
same,Total cells,Balb/c mice; [1],448000 and 1390000 and 1510000 and 815000 and 484000
same,Inflammatory cell recruitment in BAL,"Balb/c mice; HDM-challenged mice, vs solvent group",no effect
same,Increase of number of macrophages in BAL vs solvent group,Balb/c mice; [2],4.5 fold
same,"Number of neutrophils in BAL, change vs solvent group",Balb/c mice; [2],−71%
same,"Number of B cells in BAL, change vs solvent group",Balb/c mice; [3],−40%
same,"Number of eosinophils in BAL, change vs solvent group",Balb/c mice; [3],−25%
